For four compounds, IC50, CC50 and selectivity ratio results are on record in ChEMBL document CHEMBL5120889, “Dolabrane-Type Diterpenoids with Immunosuppressive Activity from Koilodepas hainanense” (J Nat Prod, 2022).

The IC50 is the midpoint of a concentration-inhibition curve. In general, CC50 refers to the concentration that lowers cell viability or growth by half.

One data set relates to B-cell line. Put plainly: Immunosuppressive activity in BALB/c mouse splenocytes assessed as reduction in LPS-induced mouse B-lymphocytes proliferation incubated for 8 hrs by beta scintillation counting based [3H]thymidine incorporation assay. The data set is classed as functional.
The nature of data set [1]: Cytotoxicity in BALB/c mouse Splenocyte assessed as reduction in cell viability incubated for 48 hrs by MTT assay. It is filed as toxicity, cell-based. Conditions: splenocytes. Background: Tetrazolium dyes change colour on reduction, which living cells bring about.
Data set [2] can be described thus: Immunosuppressive activity in BALB/c mouse splenocytes assessed as reduction in ConA-induced mouse T-lymphocytes proliferation incubated for 8 hrs by beta scintillation counting based [3H]thymidine incorporation assay. It is filed as functional. Conditions: T-cell. On the technique in general: Incorporation of labelled thymidine or its analogues reports DNA synthesis.

Data set [3] in a line: Selectivity index, ratio of CC50 for cytotoxicity in BALB/c mouse splenocytes to IC50 for immunosuppressive activity in BALB/c mouse splenocytes assessed as reduction in LPS-induced mouse B-lymphocytes proliferation. The data set is classed as toxicity, cell-based. Conditions: read-out: Ratio CC50/IC50.
Data set [4] can be described thus: Selectivity index, ratio of CC50 for cytotoxicity in BALB/c mouse splenocytes to IC50 for immunosuppressive activity in BALB/c mouse splenocytes assessed as reduction in ConA-induced mouse T-lymphocytes proliferation. It is filed as toxicity, cell-based. Conditions: read-out: Ratio CC50/IC50.

`CC1=C(O)C(=O)C[C@@H]2[C@@]3(C)CC[C@](C)(C(=O)O)C[C@@H]3CC[C@]12C`: the IC50 in the data set on B-cell line (read-out: IC50) amounted to 3.05 µM; in data set [2], 3.41 µM. Moreover, the CC50 at 48 h in data set [1] is 6.46 µM. In addition, the selectivity ratio in data set [3] came out at 2.1; in data set [4] it was 1.9.

Take `C[C@@H]1C(=O)CC[C@@H]2[C@@]3(C)CC[C@](C)([C@@H](O)CO)C[C@@H]3CC[C@]21C`: the IC50 in the data set on B-cell line (read-out: IC50) was found to be 10.2 µM; in data set [2] it was 23.9 µM. Besides, the CC50 at 48 h in data set [1] was 24.2 µM. In addition, the results for the selectivity ratio in data set [3] and in data set [4] were 2.4 and 1, respectively.

On to `CC1=CC(=O)C[C@@H]2[C@@]3(C)CC[C@](C)(O)C[C@@H]3CC[C@@]12C`, for which the IC50 in the data set on B-cell line (read-out: IC50) came out at 2.24 µM; in data set [2], 3.11 µM. The CC50 at 48 h in data set [1] is 13.2 µM. Also, the selectivity ratio in data set [3] was 5.9; in data set [4] it was 4.2.

As to `C/C=C/C[C@@H](C)[C@@H](O)[C@H]1C(=O)N[C@@H](CC)C(=O)N(C)CC(=O)N(C)[C@@H](CC(C)C)C(=O)N[C@@H](C(C)C)C(=O)N(C)[C@@H](CC(C)C)C(=O)N[C@@H](C)C(=O)N[C@H](C)C(=O)N(C)[C@@H](CC(C)C)C(=O)N(C)[C@@H](CC(C)C)C(=O)N(C)[C@@H](C(C)C)C(=O)N1C` [CYCLOSPORINE], the IC50 in the data set with B-cell line turned out to be 0.74 µM.
